The record followed here is article PMC9935382, “Sorting nexin-dependent therapeutic targeting of oncogenic epidermal growth factor receptor” (Cancer Gene Therapy, 2022).

The subject of one series is MCF10A cells. As to the kind of experiment: MTT cell viability, MCF10A. To be noted: immortalized breast epithelial line, 3 days. It is filed as cell-based. The procedure:
(§1) 2 × 10^3 cells were plated per well in a 96 well plate and left to adhere overnight. The following day, drug treatments were started and continued for 3 days. To measure the viability of the remaining cell population, 10% 3-(4,5-dimethylthiazol-2-yl)-2,5-diphenyltetrazolium (MTT) in media was added and incubated for 2 hours and conversion of MTT to formazan at 540 nm using a biotech Synergy LX plate reader.
(§2) A–G Cells were plated in a 96-well plate at 2000 cells per well. […] Cell viability was then measured with an MTT assay, viability of treated cells were compared with the vehicle control. H MDA-MB-468 cells were plated and incubated+/− IPTG for 2 days prior to drug treatment to induce expression of an EGFR-targeted shRNA.

Series [1] can be described thus: Body weight and toxicity in WAP-TGFα mice. The format is in vivo. As to conditions: 10 μg/g IV 3X/week, up to 4 weeks. The text has this: The transgenic mouse line WAP-TGFα (The Jackson Laboratory; Tg(WapTgfa)215Bri) were back crossed to C57BL/6 J background (N8). WAP-TGFα heterozygous males were bred with C57BL/6 J females to generate study animals and offspring were genotyped using primers against the WAP-TGFα transgene. WAP-TGFα heterozygous females were housed continuously with C57Bl/6 J males to induce pregnancy, resulting in transgene expression. […] To ensure randomized treatment arms we added mice to alternating treatment arms as they developed tumors, starting with the control cPTD4 arm. When a second mouse from the same litter developed a tumor, that animal was added to the opposite arm from its litter mate. The researchers were not blinded to the treatment arms. […] Once entered, mice were weighed, tumors measured, and injections given intravenously at 10 μg/g body weight 3x/week for 4 weeks. […] Upon sacrifice, all tumors were collected and fixed in 10% formalin; a portion of each tumor was homogenized in tissue lysis buffer to form tissue protein lysates. Tissues were paraffin-embedded and sectioned by the Tissue Acquisition and Cell Molecular Analysis Shared Resource at the University of Arizona Cancer Center. […]
When tumors reached >100 mm^3, IV injections began at 3X/week, 10 μg/g body weight and tumors were measured 3X/week with calipers. […]
Supplementary Figure 2. […] B. Tumors were measured with calipers 3X/week. […]

Series [2] relates to BT20 cells. The format is cell-based. To be noted: 3 days, MTT. The procedure: as §1, §2
Supplementary Figure 1. A. BT20 triple negative breast cancer cells were treated with SNX1.1, 1.2, or 1.3 for 3 days and their viability was measured via MTT analysis. B. CHO cells were treated with PTD4 or SNX1.3 for 3 days and their viability was measured via MTT analysis.

The subject of series [3] is BT20 cells. The series is described as follows: BT20 mammosphere formation. It is filed as cell-based. The protocol: 20,000 BT20 cells were suspended in mammosphere media (15 mL Mammocult media supplemented with 1.7 mL Proliferation supplement, 1.5 μL hydrocortisone, 30 μL heparin, and 150μL penicillin/streptomycin) and plated onto a low adhesion 6-well plate. After one week the number of spheres per well were counted. Cells from selected wells were then dissociated in trypsin EDTA and plated with fresh mammosphere media to develop secondary mammospheres.
(§3) Cells were then fractionated and verified by HSP90 cytosolic protein, Bap31 membrane protein, or HDAC nuclear protein. […] After the second week, the number of secondary mammospheres were counted.
These spheres were then disassociated and re-plated to form secondary mammospheres.

Series [4] is described as follows: Potential toxicity in C57Bl/6 J female mice. To be noted: 5.0 or 10.0 μg/g body weight IV 3X/week, 2 weeks, cSNX1.3 vs cPTD4; data not shown. The format is in vivo, mouse.
Series [5] deals with nuclear EGFR in MDA-MB-468 cells. The series is described as follows: Nuclear EGFR by subcellular fractionation. To be noted: serum starved, 20 ng/mL EGF and peptide, 2 h; subcellular fractionation and immunoblot. It is filed as cell-based. The procedure:
Cells were trypsinized and washed with PBS, followed by centrifugation at 100 g (4 °C) for 5 minutes. The cell pellet was resuspended in ice-cold cytosolic fraction buffer (150 mM NaCl, 50 mM HEPES pH 7.4, 25 ug/mL digitonin, with Complete protease inhibitors (Roche) and phosphatase inhibitors (2.0 mM sodium orthovanadate, 10.0 μM ammonium molybdate and 10.0 mM sodium fluoride) and tumbled at 4 °C for 10 minutes, followed by centrifuged at 2000 g, 4 °C for 10 minutes and the cytosolic fraction transferred retained for analysis as the cytosolic fraction. The pellet was then washed twice in ice-cold PBS, resuspended in membrane fraction buffer (150 mM NaCl, 50 mM HEPES pH 7.4, 1% NP-40, with protease and phosphatase inhibitors) and incubated on ice for 30 minutes. […]
Lysates were prepared as described, protein concentrations determined by BCA assay (Pierce) and resolved via standard SDS-PAGE [18]. Gels were transferred to either PVDF (Immobilon P or Immobilon FL) membrane and probed with the indicated antibodies and analyzed by either HRP-linked secondaries (Pierce) or IRDye secondaries (Li-Cor), followed by development in Dura Signal (Pierce) or IR (Licor). […]
as §3
(Immunoblotting shows a protein as a band on a membrane.)

Another series deals with H1975 cells. The series is described as follows: MTT cell viability, H1975. To be noted: EGFR driver mutation T790M, 3 days. The format is cell-based. The protocol: as §1, §2

Entries after “also recorded” stand apart in the source; their conditions may differ.

For the compound `CC[C@H](C)[C@H](NC(=O)[C@@H](NC(=O)[C@H](Cc1c[nH]cn1)NC(=O)[C@H](CC(N)=O)NC(=O)[C@H](CCCCN)NC(=O)[C@H](C)NC(=O)[C@H](CCCNC(=N)N)NC(=O)[C@H](C)NC(=O)[C@H](CCC(N)=O)NC(=O)[C@H](CCCNC(=N)N)NC(=O)[C@H](C)NC(=O)[C@H](C)NC(=O)[C@H](C)NC(=O)[C@H](CCCNC(=N)N)NC(=O)[C@H](C)NC(=O)[C@H](Cc1ccc(O)cc1)NC(C)=O)C(C)C)C(=O)N[C@@H](CCCCN)C(=O)N[C@@H](Cc1ccc(O)cc1)C(=O)N[C@@H](CC(C)C)C(=O)N[C@@H](CCC(=O)O)C(=O)N[C@H](C(=O)N[C@@H](CC(C)C)C(=O)N[C@@H](CC(C)C)C(=O)N[C@@H](Cc1ccc(O)cc1)C(=O)N[C@@H](CO)C(=O)N[C@@H](CCC(N)=O)C(=O)N[C@@H](CCC(N)=O)C(=O)N[C@@H](CCC(N)=O)C(=O)N[C@@H](CC(C)C)C(=O)N[C@@H](C)C(=O)N[C@@H](CCCCN)C(=O)N[C@@H](Cc1ccc(O)cc1)C(=O)N[C@@H](Cc1c[nH]c2ccccc12)C(=O)N[C@@H](CCC(=O)O)C(=O)N[C@@H](C)C(=O)N[C@@H](Cc1ccccc1)C(=O)N[C@@H](CC(C)C)C(N)=O)[C@@H](C)O` [cSNX1.3], the “impact on cell viability / growth” value in the series with MCF10A cells is listed as “almost no impact”. Also, the observable toxicity result in series [1] is “without observable toxicity; also recorded: no observable toxicity; also recorded: lack of observable toxicity in normal tissues”. The “inhibition of cell survival compared with Sapitinib” value in the series on BT20 cells [2] is given as “more effective than Sapitinib”. In addition, the primary mammosphere formation entry with BT20 cells [3] (1 week treatment, low adhesion plate) was “no mammospheres were formed”. Further, the “secondary mammosphere formation, treated in the first week” value in the series with BT20 cells [3] (cSNX1.3 in first week, then cPTD4 or vehicle in second week) is “reduction in sphere formation”. For the same compound, in the series with BT20 cells [3] (treated during second week), the “secondary mammosphere formation, treated in the second week” value is listed as “no mammosphere formation”. Further, the “weight, behavior, or grooming” value in series [4] is on record as “No difference in weight, behavior, or grooming was observed”. For the same compound, in series [5], the “nuclear-localized EGFR” value is “inhibits the nuclear localization of EGFR; also recorded: loss of nuclear-localized EGFR”. In addition, in the series with H1975 cells, the “effect on cell viability” value was “minimal effect”.
